Laboratory results reported in patent US10238623B2, “C14-hydroxyl esterified amino acid derivative of triptolide, and preparation method and use thereof” (HANGZHOU WEBEN PHARMACEUTICALS INC, priority 2015, dated 2019).

Tests used:
[1] = tested on: Molt-4; test: MTT growth inhibition, Molt-4 cells, 72 h; type: cell-based, human; details: for Therapeutic window: IC50 of normal blood cells/IC50 of Molt-4
Method: (§1) 5000 well-grown leukemia cells or normal human blood cells were taken and seeded into wells of a 96-well cell culture plate. The medium was 1640 cell medium containing 10% fetal bovine serum. 14-D-Valine-TPL with different concentrations was added, and after being uniformly mixed, the plate was placed in a carbon dioxide (5% CO2) cell incubator, and incubated at 37° C. for 72 hours. The concentration of live cells was then determined using the MTT assay. In this experiment, the cell viability in the control group (without the compound treatment) was set to be 100%, and the cell viability (%) after the action of the compound the half maximal growth inhibitory concentration of leukemia cells at 72 hours (IC50 value at 72 hours) and the therapeutic window index were calculated. Therapeutic window index=IC50 value of normal blood cells/IC50 value of leukemia cells. […] A larger therapeutic window indicates a better selectivity of the compound for tumor cells.
(§2) 5000 well-grown leukemia cells were taken and seeded into wells of a 96-well cell culture plate. The medium was 1640 cell medium containing 10% fetal bovine serum. 14-D-Valine-TPL with different concentrations was added, and after being uniformly mixed, the plate was placed in a carbon dioxide (5% CO2) cell incubator, and incubated at 37° C. for 72 hours. The concentration of live cells was then determined using the MTT assay. In this experiment, the cell viability in the control group (without the compound treatment) was set to be 100%, and the cell viability (%) after the action of the compound and the half maximal growth inhibitory concentration of leukemia cells at 72 hours (IC50 value at 72 hours) were calculated.
as §2, with “well-grown lymphocytes” for “well-grown leukemia cells”

[2] = tested on: CEM; test: MTT growth inhibition, CEM cells, 72 h; type: cell-based, human
Method: as §1, §2
as §2, with “well-grown lymphocytes” for “well-grown leukemia cells”

[3] = tested on: human leukemia; details: human leukemia (18/45); cited from earlier work
[4] = tested on: L615 leukemia; details: mouse, in vivo; cited from earlier work
[5] = tested on: Jurkat; test: MTT growth inhibition, Jurkat cells, 72 h; type: cell-based, human
Method: as §1, §2
as §2, with “well-grown lymphocytes” for “well-grown leukemia cells”

[6] = tested on: Sup-B15; test: MTT growth inhibition, Sup-B15 cells, 72 h; type: cell-based, human
Method: as §1, §2
as §2, with “well-grown lymphocytes” for “well-grown leukemia cells”

[7] = tested on: normal human blood cells; test: MTT assay, normal human blood cells, 72 h; type: cell-based; details: Homo sapiens, 72 h, Normal Blood Cell, Overall, MTT, read-out: IC50
Method: Leukemia cell strains: Sup-B15 (Ph+acute lymphoblastic leukemia), CEM (acute lymphoblastic leukemia, ALL), and Molt-4 (acute lymphoblastic leukemia, ALL). Normal blood cell samples: peripheral blood from healthy volunteers. • Primary reagent: 14-D-Valine-TPL of the invention. Primary instruments: cell incubator and microplate reader. (2) Experimental Method
as §1

[8] = oral and intravenous injection; cited from earlier work

CC(C)[C@]12O[C@H]1[C@@H]1O[C@]13[C@]1(O[C@H]1C[C@H]1C4=C(CC[C@@]13C)C(=O)OC4)[C@@H]2O [TPL, Triptolide]
IC50 ([1]; Homo sapiens, Molt-4, MTT, 72 hours, read-out: IC50): 10.7 nM | Therapeutic window [1]: 2.03 | Therapeutic window ([1]; listed as triptolide): 2.0 | IC50 ([2]; Homo sapiens, CCRF-CEM, CEM, MTT, 72 hours, read-out: IC50): 23.3 nM | Therapeutic window ([2]; IC50 of normal blood cells/IC50 of CEM): 0.93 | complete remission rate [3]: up to 40% | survival time of L615 leukemia mice [4]: significantly prolong the survival time | IC50 ([5]; Homo sapiens, Jurkat, MTT, 72 hours, read-out: IC50): 33.8 nM | Therapeutic window ([5]; IC50 of normal blood cells/IC50 of Jurkat): 0.64 | IC50 ([6]; Homo sapiens, Sup-B15, MTT, 72 hours, read-out: IC50): 23.2 nM | Therapeutic window ([6]; IC50 of normal blood cells/IC50 of Sup-B15): 0.94 | IC50 [7]: 21.7 nM | elimination half-life (in words) [8]: short elimination half-life
